Patent publication US20090220648A1, “Nutritional additive for animals” (KEMIRA GROW HOW AB, priority 2005, published 2009)

Test: Buffering capacity
Assay type: physicochemical

buffering capacity, mekvH+/kg sample | SMILES
14850 mekvH+/kg sample | O=C([O-])[O-].[Ca+2] [CaCO3]
50 mekvH+/kg sample | O=S(=O)([O-])[O-].[Ca+2] [CaSO4]
